# Laboratory results as given in ChEMBL document CHEMBL1212798, “High concentration of raltegravir in semen of HIV-infected men: results from a substudy of the EASIER-ANRS 138 trial” (2010).
# Key:
# Format in all cases: functional
# [1] = test system: Human immunodeficiency virus 1; assay: Antiviral activity against HIV1
# [2] = test system: Human immunodeficiency virus 1; assay: Antiviral activity against HIV1-infected in human assessed as decrease in semen viral RNA level measured after 5 hrs post dose
# [3] = test system: Human immunodeficiency virus 1; assay: Antiviral activity against HIV1-infected in human assessed as decrease in plasma viral RNA level measured after 9 hrs post dose
smiles,measurement,setting,value
Cc1nnc(C(=O)NC(C)(C)c2nc(C(=O)NCc3ccc(F)cc3)c(O)c(=O)n2C)o1 [RALTEGRAVIR],Virucidal,[1],14.6 ng/mL
same,Activity,[2],100 mL⁻¹
same,Activity,[3],50 mL⁻¹
